The source of these data is patent publication US20040082635A1, “Fused cyclic compounds and medicinal use thereof” (priority 2001, published 2004).

pIC50: −log10 of the molar value. Where a name gives a salt, the structure may show the parent alone.

T1 sequence (P26663 2420-3010): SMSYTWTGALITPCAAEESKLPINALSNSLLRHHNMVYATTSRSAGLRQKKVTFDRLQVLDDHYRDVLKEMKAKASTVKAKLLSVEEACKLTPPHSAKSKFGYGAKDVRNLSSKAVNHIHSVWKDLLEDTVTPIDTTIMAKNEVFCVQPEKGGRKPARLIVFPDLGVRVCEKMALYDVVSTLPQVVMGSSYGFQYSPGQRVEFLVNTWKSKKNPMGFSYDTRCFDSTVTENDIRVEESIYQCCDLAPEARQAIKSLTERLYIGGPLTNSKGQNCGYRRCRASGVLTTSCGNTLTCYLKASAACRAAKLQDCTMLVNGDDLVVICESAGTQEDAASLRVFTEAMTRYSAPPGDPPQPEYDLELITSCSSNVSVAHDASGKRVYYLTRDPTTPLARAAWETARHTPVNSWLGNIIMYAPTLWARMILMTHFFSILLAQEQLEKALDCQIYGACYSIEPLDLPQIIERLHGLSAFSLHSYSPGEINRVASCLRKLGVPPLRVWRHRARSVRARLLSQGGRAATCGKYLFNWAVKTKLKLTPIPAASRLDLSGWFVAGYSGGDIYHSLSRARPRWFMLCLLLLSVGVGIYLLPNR

The assay concerns the target T1, HCV polymerase (Hepatitis C virus genotype 1b, UniProt P26663).
T1 construct: a region encoding NS5B (591 amino acids; J Virol 1991 Mar, 65(3), 1105-13) was amplified by PCR; 6 His (N); made in house; host or cells: Escherichia coli
The assay can be described thus: biochemical. Conditions: read-out: HCV polymerase inhibitory activity IC50.
`N/C(=N\O)c1ccc(-c2ccc(Cl)cc2)c(COc2ccc(-c3nc4cc(C(=O)O)ccc4n3C3CCCCC3)c(F)c2)c1` [Example 373, 2-{4-[2-(4-chlorophenyl)-5-(N-hydroxyamidino)benzyloxy]-2-fluorophenyl}-1-cyclohexylbenzimidazole-5-carboxylic acid dihydrochloride]: the negative-log IC50 (pIC50) (in general, the negative decadic logarithm of the IC50, by convention in mol/L) was 7.89.

Take `O=C(O)c1ccc2c(c1)nc(-c1ccc(OCc3cc(-c4noc(=O)[nH]4)ccc3-c3ccc(Cl)cc3)cc1F)n2C1CCCCC1` [Example 374, 2-{4-[2-(4-chlorophenyl)-5-(2,5-dihydro-5-oxo-4H-1,2,4-oxadiazol-3-yl)benzyloxy]-2-fluorophenyl}-1-cyclohexylbenzimidazole-5-carboxylic acid hydrochloride]: the pIC50 is 7.89. `O=C(O)c1ccc2c(c1)nc(-c1ccc(OCc3cc(C4=NOS(=O)N4)ccc3-c3ccc(Cl)cc3)cc1F)n2C1CCCCC1` (centres unmarked) [Example 375, 2-{4-[2-(4-chlorophenyl)-5-(2-oxo-3H-1,2,3,5-oxathiadiazol-4-yl)benzyloxy]-2-fluorophenyl}-1-cyclohexylbenzimidazole-5carboxylic acid hydrochloride]: the pIC50 was 7.92. As to `O=C(O)c1ccc2c(c1)nc(-c1ccc(OCc3cc(-c4nsc(=O)[nH]4)ccc3-c3ccc(Cl)cc3)cc1F)n2C1CCCCC1` [Example 376, 2-{4-[2-(4-chlorophenyl)-5-(2,5-dihydro-5-oxo-4H-1,2,4-thiadiazol-3-yl)benzyloxy]-2-fluorophenyl}-1-cyclohexylbenzimidazole-5-carboxylic acid hydrochloride], the pIC50 was 7.85.

With `O=C(O)c1ccc2c(c1)nc(-c1ccc(OCc3cc(C(=O)NC4CC4)ccc3-c3ccc(Cl)cc3)cc1F)n2C1CCCCC1` [Example 377, 2-{4-[2-(4-chlorophenyl)-5-(cyclopropylcarbamoyl)benzyloxy]-2-fluorophenyl}-1-cyclohexylbenzimidazole-5-carboxylic acid hydrochloride], the negative-log IC50 (pIC50) is 7.92. Turning to `O=C(O)c1ccc2c(c1)nc(-c1ccc(OCc3cc(C(=O)NC4CCC4)ccc3-c3ccc(Cl)cc3)cc1F)n2C1CCCCC1` [Example 378, 2-{4-[2-(4-chlorophenyl)-5-(cyclobutylcarbamoyl)benzyloxy]-2-fluorophenyl}-1-cyclohexylbenzimidazole-5-carboxylic acid hydrochloride], the negative logarithm of the IC50 (pIC50) was 7.74. As for `CC(C)(C)NC(=O)c1ccc(-c2ccc(Cl)cc2)c(COc2ccc(-c3nc4cc(C(=O)O)ccc4n3C3CCCCC3)c(F)c2)c1` [Example 379, 2-{4-[2-(4-chlorophenyl)-5-(tert-butylcarbamoyl)benzyloxy]-2-fluorophenyl}-1-cyclohexylbenzimidazole-5-carboxylic acid hydrochloride], the figure is 7.68; as for `CC(C)CNC(=O)c1ccc(-c2ccc(Cl)cc2)c(COc2ccc(-c3nc4cc(C(=O)O)ccc4n3C3CCCCC3)c(F)c2)c1` [Example 380, 2-{4-[2-(4-chlorophenyl)-5-(isobutylcarbamoyl)benzyloxy]-2-fluorophenyl}-1-cyclohexylbenzimidazole-5-carboxylic acid hydrochloride], 7.64.

On to `CC(CO)NC(=O)c1ccc(-c2ccc(Cl)cc2)c(COc2ccc(-c3nc4cc(C(=O)O)ccc4n3C3CCCCC3)c(F)c2)c1` (centres unmarked) [Example 381, 2-{4-[2-(4-chlorophenyl)-5-{(1-hydroxypropan-2-yl)carbamoyl}-benzyloxy]-2-fluorophenyl}-1-cyclohexylbenzimidazole-5-carboxylic acid hydrochloride], for which the pIC50 is 7.96. In the case of `CONC(=O)c1ccc(-c2ccc(Cl)cc2)c(COc2ccc(-c3nc4cc(C(=O)O)ccc4n3C3CCCCC3)c(F)c2)c1` [Example 382, 2-{4-[2-(4-chlorophenyl)-5-(methoxycarbamoyl)benzyloxy]-2-fluorophenyl}-1-cyclohexylbenzimidazole-5-carboxylic acid hydrochloride], the pIC50 is 7.82. Consider `O=C(O)c1ccc2c(c1)nc(-c1ccc(OCc3cc(C(=O)NCC(O)CO)ccc3-c3ccc(Cl)cc3)cc1F)n2C1CCCCC1` (centres unmarked) [Example 383, 2-{4-[2-(4-chlorophenyl)-5-{(2,3-dihydroxypropyl)carbamoyl}-benzyloxy]-2-fluorophenyl}-1-cyclohexylbenzimidazole-5-carboxylic acid hydrochloride], for which the pIC50 was 7.89.

As to `CCN(C)C(=O)c1ccc(-c2ccc(Cl)cc2)c(COc2ccc(-c3nc4cc(C(=O)O)ccc4n3C3CCCCC3)c(F)c2)c1` [Example 384, 2-{4-[2-(4-chlorophenyl)-5-(N-ethyl-N-methylcarbamoyl)benzyloxy]-2-fluorophenyl}-1-cyclohexylbenzimidazole-5-carboxylic acid hydrochloride], the pIC50 is 7.80. For the compound `CCCN(C)C(=O)c1ccc(-c2ccc(Cl)cc2)c(COc2ccc(-c3nc4cc(C(=O)O)ccc4n3C3CCCCC3)c(F)c2)c1` [Example 385, 2-{4-[2-(4-chlorophenyl)-5-(N-methyl-N-propylcarbamoyl)-benzyloxy]-2-fluorophenyl}-1-cyclohexylbenzimidazole-5-carboxylic acid hydrochloride], the negative logarithm of the IC50 (pIC50) is 7.72.

As to `CC(C)N(C)C(=O)c1ccc(-c2ccc(Cl)cc2)c(COc2ccc(-c3nc4cc(C(=O)O)ccc4n3C3CCCCC3)c(F)c2)c1` [Example 386, 2-{4-[2-(4-chlorophenyl)-5-(N-isopropyl-N-methylcarbamoyl)-benzyloxy]-2-fluorophenyl}-1-cyclohexylbenzimidazole-5-carboxylic acid hydrochloride], the negative-log IC50 (pIC50) is 7.74. Turning to `C[C@@H]1CCC[C@H](C)N1C(=O)c1ccc(-c2ccc(Cl)cc2)c(COc2ccc(-c3nc4cc(C(=O)O)ccc4n3C3CCCCC3)c(F)c2)c1` [Example 387, 2-{4-[2-(4-chlorophenyl)-5-(2,6-dimethylpiperidin-1-ylcarbonyl)-benzyloxy]-2-fluorophenyl}-1-cyclohexylbenzimidazole-5-carboxylic acid hydrochloride], the negative logarithm of the IC50 (pIC50) was 7.60. With `CCCCNC(=O)c1ccc(-c2ccc(Cl)cc2)c(COc2ccc(-c3nc4cc(C(=O)O)ccc4n3C3CCCCC3)c(F)c2)c1` [Example 388, 2-{4-[5-(butylcarbamoyl)-2-(4-chlorophenyl)benzyloxy]-2-fluorophenyl}-1-cyclohexylbenzimidazole-5-carboxylic acid hydrochloride], the pIC50 was 7.70.

`CCCNC(=O)c1ccc(-c2ccc(Cl)cc2)c(COc2ccc(-c3nc4cc(C(=O)O)ccc4n3C3CCCCC3)c(F)c2)c1` [Example 389, 2-{4-[2-(4-chlorophenyl)-5-(propylcarbamoyl)benzyloxy]-2-fluorophenyl}-1-cyclohexylbenzimidazole-5-carboxylic acid hydrochloride]: the pIC50 was 7.92. As for `CCNC(=O)c1ccc(-c2ccc(Cl)cc2)c(COc2ccc(-c3nc4cc(C(=O)O)ccc4n3C3CCCCC3)c(F)c2)c1` [Example 390, 2-{4-[2-(4-chlorophenyl)-5-(ethylcarbamoyl)benzyloxy]-2-fluorophenyl}-1-cyclohexylbenzimidazole-5-carboxylic acid hydrochloride], the negative logarithm of the IC50 (pIC50) was 7.85. `CN(C)C(=O)Nc1ccc(-c2ccc(Cl)cc2)c(COc2ccc(-c3nc4cc(C(=O)O)ccc4n3C3CCCCC3)c(F)c2)c1` [Example 391, 2-{4-[2-(4-chlorophenyl)-5-{(dimethylcarbamoyl)amino}benzyloxy]-2-fluorophenyl}-1-cyclohexylbenzimidazole-5-carboxylic acid hydrochloride]: the negative-log IC50 (pIC50) is 7.77. In the case of `O=C(O)c1ccc2c(c1)nc(-c1ccc(OCc3cc(NC(=O)N4CCOCC4)ccc3-c3ccc(Cl)cc3)cc1F)n2C1CCCCC1` [Example 392, 2-{4-[2-(4-chlorophenyl)-5-{(morpholinocarbonyl)amino}benzyloxy]-2-fluorophenyl}-1-cyclohexylbenzimidazole-5-carboxylic acid hydrochloride], the pIC50 is 7.85. On to `NC(=O)Nc1ccc(-c2ccc(Cl)cc2)c(COc2ccc(-c3nc4cc(C(=O)O)ccc4n3C3CCCCC3)c(F)c2)c1` [Example 393, 2-{4-[2-(4-chlorophenyl)-5-ureidobenzyloxy]-2-fluorophenyl}-1-cyclohexylbenzimidazole-5-carboxylic acid hydrochloride], for which the pIC50 was 7.96. As for `CCNC(=O)Nc1ccc(-c2ccc(Cl)cc2)c(COc2ccc(-c3nc4cc(C(=O)O)ccc4n3C3CCCCC3)c(F)c2)c1` [Example 394, 2-{4-[2-(4-chlorophenyl)-5-{(ethylcarbamoyl)amino}benzyloxy]-2-fluorophenyl}-1-cyclohexylbenzimidazole-5-carboxylic acid hydrochloride], the figure is 7.72; as for `CC(C)NC(=O)Nc1ccc(-c2ccc(Cl)cc2)c(COc2ccc(-c3nc4cc(C(=O)O)ccc4n3C3CCCCC3)c(F)c2)c1` [Example 395, 2-{4-[2-(4-chlorophenyl)-5-{(isopropylcarbamoyl)amino}benzyloxy]-2-fluorophenyl}-1-cyclohexylbenzimidazole-5-carboxylic acid hydrochloride], 7.80. Next, `CC(C)NC(=O)c1ccc(-c2ccc(F)c(F)c2)c(COc2ccc(-c3nc4cc(C(=O)O)ccc4n3C3CCCCC3)c(F)c2)c1` [Example 396, 2-{4-[2-(3,4-difluorophenyl)-5-(isopropylcarbamoyl)benzyloxy]-2-fluorophenyl}-1-cyclohexylbenzimidazole-5-carboxylic acid]: 7.60. Take `CC(C)NC(=O)c1ccc(-c2ccc(F)cc2F)c(COc2ccc(-c3nc4cc(C(=O)O)ccc4n3C3CCCCC3)c(F)c2)c1` [Example 397, 2-{4-[2-(2,4-difluorophenyl)-5-(isopropylcarbamoyl)benzyloxy]-2-fluorophenyl}-1-cyclohexylbenzimidazole-5-carboxylic acid hydrochloride]: the pIC50 is 7.43.

Take `CC(C)NC(=O)c1ccc(-c2cc(Cl)cc(Cl)c2)c(COc2ccc(-c3nc4cc(C(=O)O)ccc4n3C3CCCCC3)c(F)c2)c1` [Example 398, 2-{4-[2-(3,5-dichlorophenyl)-5-(isopropylcarbamoyl)benzyloxy]-2-fluorophenyl}-1-cyclohexylbenzimidazole-5-carboxylic acid hydrochloride]: the pIC50 was 7.11.
